The values below come from US12427163B2, “Anti-VTCN1 antibodies and antibody drug conjugates” (Bluefin BioMedicine, Inc., priority 2017, dated 2025).

The subject of one assay is 4T1 tumors. Description: 4T1 mouse triple negative breast cancer model in Balb/C mice. Type of assay: in vivo. As to the method: 6-8 week-old Balb/C mice were injected with 0.1 million of 4T1 cells in the mammary fat pad. On day 5, mice were randomized to 4 treatment groups, PBS, 6D9 (10 mg/kg), Gemcitabine (75 mg/kg), and 6D9 (10 mg/kg) plus gemcitabine (75 mg/kg). All treatments were by intraperitoneal injection and mice received a total of 5 treatments on days 5, 8, 12, 14, and 16.
The tumors and lymph nodes were harvested from these mice, and cells were dissociated and subjected to immune cell profiling by flow cytometry analysis.

The subject of the next assay is human monocytes. As to the kind of experiment: Cytokine treatment of monocytes, expression of VTCN1, PD-L1, CD80 by flow cytometry. The note with it: 24, 48, or 73 hours. The format is cell-based. As for the experimental part: VTCN1 is expressed in monocytes and macrophages in a tumor microenviroment, the expression induced by cytokines in tumor microenviroment. VTCN1 positive macrophages inhibit T cell activation. Monocytes from healthy donors were treated with IFNγ and IL-6 to assess VTCN1 expression. Monocytes were enriched from fresh PBMC from healthy donor using a monocyte enrichment kit from Stemcell Technologies, and the purity of the obtained monocytes is greater than 95%. Monocytes were cultured in 24 well plate with different concentration of INFγ or LI-6 for 24, 48, or 73 hours, expression of VTCN1, PD-L1, and CD80 was assessed by flow cytometry. […] CD80 was expressed at low level in monocytes, and is not very responsive to cytokine treatment.
(In flow cytometry, cells or beads pass a laser one at a time.)

Turning to `Nc1ccn([C@@H]2O[C@H](CO)[C@@H](O)C2(F)F)c(=O)n1` [Gemcitabine, gemcitabine], the 4T1 tumor growth entry with 4T1 tumors (6D9 10 mg/kg, gemcitabine 75 mg/kg, i.p., days 5, 8, 12, 14, 16) is listed as “totally inhibited tumor growth at the early stage of the study with tumor regrowth after 30 days”. Moreover, the “tumor-free mice (complete response; CR) at end of study on day 65” value in the assay on 4T1 tumors (mouse, in vivo) is on record as “none of the mice in the gemcitabine alone group were tumor-free”.

As to “IL6: cytokine added to human monocyte cultures”, the “VTCN1 and PD-L1 expression in monocytes” value in the assay with human monocytes was “VTCN1 and PD-L1 expression was induced”.
